In US9266835B2, “Quinoline derivatives useful as CB-1 inverse agonists” (JANSSEN PHARMACEUTICA NV, priority 2014, dated 2016):

Experiments:
[1] = biological target: Human CB1R (Cannabinoid receptor 1) (Homo sapiens (Human), UniProt P21554); experiment: CB-1 in vitro cAMP assay (HTRF), inverse agonism; assay type: cell-based; conditions: mean where tested more than once
Text: (§1) CB1 and CB2 receptors are Gi-coupled GPCR. Activation of CB1 and CB2 receptors results in a decrease in cAMP production. An inverse agonist of the CB1 or CB2 receptor results in the opposite effect, an increase of cAMP production. The principle of this assay is based on HTRF® technology (Homogeneous Time-Resolved Fluorescence). The method is a competitive immunoassay between native cAMP produced by cells and the cAMP labeled with the fluorophore d2. The tracer binding is quantified by a Mab anti-cAMP labeled with Eu3+TBP-NHS Cryptate (supplied as part of the assay kit). The specific signal (i.e. energy transfer) is inversely proportional to the concentration of cAMP in the standard or sample.
(§2) Human CB1R (Cannabinoid receptor 1) was stably transfected in HEK-293 cells (DiscoveRx, cat: 93-0200C1). Human CB2R (Cannabinoid receptor 2) was stably transfected in HEK-293 cells (DiscoveRx, cat: 93-0201C1). Cell cultures were maintained in media: DMEM (Invitrogen Cat#12430-054) supplemented with 10% HI FBS (Invitrogen Cat#16140-071), 1% L-glutamine (Invitrogen Cat#25030-081), 0.2 mg/ml Hygromycin B (Invitrogen Cat#10687-010), 600 μg/mL G418 (Invitrogen Cat#10131-035), and 1X Penn/Strep (Invitrogen 15140-122). After cell expansion, aliquots were cryo-stored in media containing 5% DMSO (Pierce Cat#20684).
(§3) One day prior to experiments media was warmed to 37° C. and the cryo-stored cells were thawed in a 37° C. water bath. The cells were then added to media (10× volume) and the mixture was centrifuged at 1000 RPM for 5 min. The supernate was removed and the cells were re-suspended in media. A sample of the cell suspension was evaluated on a Cedex XS automated cell counter (Innovatis Systems) to determine viable cells/ml. Additional media was added to the cells to achieve a final cell density of 4E5 cells/mL. The cells were then plated into 384 well PDL white solid bottom plates (Greiner, Cat#781945) at 20 μL per well using a Multidrop (Thermo Scientific). Cells were removed from Row P (location of cAMP standards). Two columns of cells were plated into a clear bottom 384 well PDL coated plate (Greiner, Cat#781944) to view confluence the day of the assay. The cell plates were lidded and stored for 15 minutes in a hood, then transferred to an incubator (37° C., 5% CO2, 95% humidity) overnight.
(§4) DMSO was added to all wells of 384 well V bottom polystyrene plate (Greiner, Cat#781280) except to columns 1 and 13, rows 0 and P and wells M13-M23 and N13-N23. Test compounds (60 μL, 10 mM) were added to Column 1 and 13 (A1 through N1 and A13 through L13). Test compounds were serially diluted 1/3 by transferring and mixing 20 μl sample with 40 μL DMSO.
(§5) DMSO (40 μL) was added to wells of 384 well V bottom polystyrene plate: O2 through O11, M14 through M23, N14 through N23, and O14 through O23. AM630 (also known as [6-iodo-2-methyl-1-[2-(4-morpholinyl)ethyl]-1H-indol-3-yl](4-methoxyphenyl)-methanone, Cayman Chemical, Cat#10006974) (60 μL, 10 mM) was added to 01; and 1-(2,4-dichlorophenyl)-7-[(4-fluorophenyl)methylene]-4,5,6,7-tetrahydro-N-1-piperidinyl-1H-indazole-3-carboxamide (60 μL, 10 mM) was added to N13. The control was serially diluted 1/3 by transferring and mixing 20 μl sample with 40 μL DMSO. This process resulted 11 doses per control, 10 mM to […].
(§6) Cells plated the day prior to the assay in clear bottom plates were viewed on an inverse microscope to ensure confluency in the range of 60-75%. […]

[2] = biological target: Human CB2R (Cannabinoid receptor 2) (Homo sapiens (Human), UniProt P34972); experiment: CB-2 in vitro cAMP assay (HTRF), inverse agonism; assay type: cell-based; conditions: mean where tested more than once
Text: as §1, §2, §3, §4, §5, §6

Sequence of Human CB1R (Cannabinoid receptor 1) (P21554 whole entry): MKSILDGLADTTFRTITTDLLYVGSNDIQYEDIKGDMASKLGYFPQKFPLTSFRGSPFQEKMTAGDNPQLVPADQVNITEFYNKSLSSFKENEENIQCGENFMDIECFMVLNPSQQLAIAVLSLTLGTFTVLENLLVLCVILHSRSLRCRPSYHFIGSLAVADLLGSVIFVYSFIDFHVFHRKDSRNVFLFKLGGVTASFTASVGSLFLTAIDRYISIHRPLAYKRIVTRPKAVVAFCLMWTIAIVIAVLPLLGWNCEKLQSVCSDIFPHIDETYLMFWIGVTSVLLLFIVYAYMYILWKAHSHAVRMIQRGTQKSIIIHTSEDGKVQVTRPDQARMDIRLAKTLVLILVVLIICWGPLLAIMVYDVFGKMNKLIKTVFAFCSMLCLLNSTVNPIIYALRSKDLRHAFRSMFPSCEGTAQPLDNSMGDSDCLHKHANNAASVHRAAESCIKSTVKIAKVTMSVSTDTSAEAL
Sequence of Human CB2R (Cannabinoid receptor 2) (P34972 whole entry): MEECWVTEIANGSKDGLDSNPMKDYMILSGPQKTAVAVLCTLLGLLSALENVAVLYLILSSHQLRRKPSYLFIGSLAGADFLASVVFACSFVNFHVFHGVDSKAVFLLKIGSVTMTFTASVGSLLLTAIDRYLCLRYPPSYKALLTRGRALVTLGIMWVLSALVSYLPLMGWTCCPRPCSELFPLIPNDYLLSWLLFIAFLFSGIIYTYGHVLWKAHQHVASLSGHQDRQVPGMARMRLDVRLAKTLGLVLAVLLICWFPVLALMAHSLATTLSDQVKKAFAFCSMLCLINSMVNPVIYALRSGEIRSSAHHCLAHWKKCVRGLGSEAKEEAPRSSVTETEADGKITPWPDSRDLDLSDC

## O=C(CC(F)(F)F)N1CCC(Nc2cc(=O)[nH]c3ccc(C(c4ccc(Cl)cc4)c4ccc(Cl)cc4)cc23)CC1 [Compound 69, 6-[Bis(4-chlorophenyl)methyl]-4-{[1-(3,3,3-trifluoropropanoyl)piperidin-4-yl]amino}quinolin-2(1H)-one]
[1]
  EC50: 0.01 µM
[2]
  EC50: 4.2 µM

## O=c1cc(NC2CCN(S(=O)(=O)C(F)(F)F)CC2)c2cc(C(O)(c3ccc(Cl)cc3)c3ccc(Cl)cc3)ccc2[nH]1 [Compound 73, 6-[Bis(4-chlorophenyl)(hydroxy)methyl]-4-({1-[(trifluoromethyl)sulfonyl]-piperidin-4-yl}amino)quinolin-(1H)-one]
[1]
  EC50: 0.052 µM
[2]
  EC50: 5.4 µM

## CC(Nc1cc(=O)[nH]c2ccc(C(c3ccc(Cl)cc3)c3ccc(Cl)cc3)cc12)c1cccc(C(F)(F)F)c1 (stereo not shown) [Compound 74, 6-[Bis(4-chlorophenyl)methyl]-4-({1-[3-(trifluoromethyl)phenyl]ethyl}amino)quinolin-2(1H)-one]
[1]
  EC50: 0.036 µM
[2]
  EC50: > 10 µM

## O=c1cc(Nc2cccc(C(F)(F)F)c2)c2cc(C(c3ccc(Cl)cc3)c3ccc(Cl)cc3)ccc2[nH]1 [Compound 75, 6-[Bis(4-chlorophenyl)methyl]-4-{[3-(trifluoromethyl)phenyl]amino}-quinolin-2(1H)-one]
[1]
  EC50: 0.025 µM
[2]
  EC50: > 10 µM

## O=c1cc(NCc2ccc(C(F)(F)F)cn2)c2cc(C(c3ccc(Cl)cc3)c3ccc(Cl)cc3)ccc2[nH]1 [Compound 78, 6-[Bis(4-chlorophenyl)methyl]-4-({[5-(trifluoromethyl)pyridin-2-yl]methyl}amino)quinolin-2(1H)-one]
[1]
  EC50: 0.168 µM
[2]
  EC50: > 10 µM

## O=c1cc(NCc2cncc(C(F)(F)F)c2)c2cc(C(c3ccc(Cl)cc3)c3ccc(Cl)cc3)ccc2[nH]1 [Compound 79, 6-[Bis(4-chlorophenyl)methyl]-4-({[5-(trifluoromethyl)pyridin-3-yl]methyl}amino)quinolin-2(1H)-one]
[1]
  EC50: 0.054 µM
[2]
  EC50: 6.75 µM

## O=c1cc(NC2CCN(S(=O)(=O)c3ccccc3)CC2)c2cc(C(c3ccc(Cl)cc3)c3ccc(Cl)cc3)ccc2[nH]1 [Compound 80, 6-[Bis(4-chlorophenyl)methyl]-4-{[1-(phenylsulfonyl)piperidin-4-yl]amino}quinolin-2(1H)-one]
[1]
  EC50: 0.014 µM
[2]
  EC50: > 10 µM

## O=c1cc(NC2CCN(S(=O)(=O)N3CCCC3)CC2)c2cc(C(c3ccc(Cl)cc3)c3ccc(Cl)cc3)ccc2[nH]1 [Compound 81, 6-(bis(4-chlorophenyl)methyl)-4-((1-(pyrrolidin-1-ylsulfonyl)piperidin-4-yl)amino)quinolin-2(1H)-one]
[1]
  EC50: 0.015 µM
[2]
  EC50: > 10 µM

## O=c1cc(NC2CCN(S(=O)(=O)c3cccc(F)c3)CC2)c2cc(C(c3ccc(Cl)cc3)c3ccc(Cl)cc3)ccc2[nH]1 [Compound 82, 6-[Bis(4-chlorophenyl)methyl]-4-({1-[(3-fluorophenyl)sulfonyl]-piperidin-4-yl}amino)quinolin-2(1H)-one]
[1]
  EC50: 0.063 µM
[2]
  EC50: 3.2 µM

## O=c1cc(Nc2ccc(Cl)c(F)c2)c2cc(C(c3ccc(Cl)cc3)c3ccc(Cl)cc3)ccc2[nH]1 [Compound 83, 6-[Bis(4-chlorophenyl)methyl]-4-[(4-chloro-3-fluorophenyl)amino]quinolin-2(1H)-one]
[1]
  EC50: 0.011 µM
[2]
  EC50: > 10 µM

## O=C(O)c1cccc(S(=O)(=O)N2CCC(Nc3cc(=O)[nH]c4ccc(C(c5ccc(Cl)cc5)c5ccc(Cl)cc5)cc34)CC2)c1 [Compound 84, 3-{[4-({6-[Bis(4-chlorophenyl)methyl]-2-oxo-1,2-dihydroquinolin-4-yl}amino)piperidin-1-yl]sulfonyl}benzoic acid]
[1]
  EC50: 0.269 µM
[2]
  EC50: 8.96 µM

## COC(=O)c1ccc(Nc2cc(=O)[nH]c3ccc(C(c4ccc(Cl)cc4)c4ccc(Cl)cc4)cc23)cc1 [Compound 85, Methyl 4-({6-[bis(4-chlorophenyl)methyl]-2-oxo-1,2-dihydroquinolin-4-yl}amino)benzoate]
[1]
  EC50: 0.07 µM
[2]
  EC50: > 10 µM

## O=C(O)c1ccc(Nc2cc(=O)[nH]c3ccc(C(c4ccc(Cl)cc4)c4ccc(Cl)cc4)cc23)cc1 [Compound 86, 4-({6-[Bis(4-chlorophenyl)methyl]-2-oxo-1,2-dihydroquinolin-4-yl}amino)benzoic acid]
[1]
  EC50: > 10 µM
[2]
  EC50: > 10 µM

## NC(=O)c1ccc(Nc2cc(=O)[nH]c3ccc(C(c4ccc(Cl)cc4)c4ccc(Cl)cc4)cc23)cc1 [Compound 87, 4-({6-[Bis(4-chlorophenyl)methyl]-2-oxo-1,2-dihydroquinolin-4-yl}amino)benzamide]
[1]
  EC50: 3.15 µM
[2]
  EC50: > 10 µM

## O=c1cc(NC2CCC(C(F)(F)F)CC2)c2cc(C(c3ccc(Cl)cc3)c3ccc(Cl)cc3)ccc2[nH]1 (stereo not shown) [Compound 88, 6-[Bis(4-chlorophenyl)methyl]-4-{[4-(trifluoromethyl)cyclohexyl]-amino}quinolin-2(1H)-one]
[1]
  EC50: 0.111 µM
[2]
  EC50: 3.7 µM

## Cn1c(=O)cc(NC2CCN(S(=O)(=O)C(F)(F)F)CC2)c2cc(C(c3ccc(Cl)cc3)c3nccs3)ccc21 (stereo not shown) [Compound 89, 6-[(4-chlorophenyl)(1,3-thiazol-2-yl)methyl]-1-methyl-4-[[1-(trifluoromethane)sulfonylpiperidin-4-yl]amino]-1,2-dihydroquinolin-2-one]
[1]
  EC50: 0.014 µM
[2]
  EC50: 9.9 µM

## NC(=O)Cn1c(=O)cc(NC2CCN(S(=O)(=O)C(F)(F)F)CC2)c2cc(C(c3ccc(Cl)cc3)c3ccc(Cl)cc3)ccc21 [Compound 90, 2-(6-(bis(4-chlorophenyl)methyl)-2-oxo-4-((1-((trifluoromethyl)sulfonyl)piperidin-4-yl)amino)quinolin-1(2H)-yl)acetamide]
[1]
  EC50: 0.967 µM
[2]
  EC50: > 10 µM

## O=c1cc(NC2CCN(S(=O)(=O)C(F)(F)F)CC2)c2cc(C(c3ccc(Cl)cc3)c3ccc(Cl)cc3)cc(Br)c2[nH]1 [Compound 92, 6-(bis(4-chlorophenyl)methyl)-8-bromo-4-((1-((trifluoromethyl)sulfonyl)piperidin-4-yl)amino)quinolin-2(1H)-one]
[1]
  EC50: 0.01 µM
[2]
  EC50: 0.05 µM

## O=c1cc(Nc2ccc(CC(F)(F)F)cc2)c2cc(C(c3ccc(Cl)cc3)c3ccc(Cl)cc3)cc(Br)c2[nH]1 [Compound 93]
[1]
  EC50: 0.015 µM
[2]
  EC50: > 10 µM

## COCCOc1ccc(Nc2cc(=O)[nH]c3ccc(C(c4ccc(Cl)cc4)c4ccc(Cl)cc4)cc23)cc1 [Compound 94, 6-[Bis(4-chlorophenyl)methyl]-4-{[4-(2-methoxyethoxy)phenyl]-amino}quinolin-2(1H)-one]
[1]
  EC50: 0.055 µM
[2]
  EC50: > 10 µM

## CCOC(=O)CC(=O)N1CCC(Nc2cc(=O)[nH]c3ccc(C(c4ccc(Cl)cc4)c4ccc(Cl)cc4)cc23)CC1 [Compound 95, Ethyl 3-[4-({6-[bis(4-chlorophenyl)methyl]-2-oxo-1,2-dihydroquinolin-4-yl}amino)piperidin-1-yl]-3-oxopropanoate]
[1]
  EC50: 0.013 µM
[2]
  EC50: 3.65 µM

## O=C(O)CC(=O)N1CCC(Nc2cc(=O)[nH]c3ccc(C(c4ccc(Cl)cc4)c4ccc(Cl)cc4)cc23)CC1 [Compound 96, 3-[4-({6-[Bis(4-chlorophenyl)methyl]-2-oxo-1,2-dihydroquinolin-4-yl}amino)piperidin-1-yl]-3-oxopropanoic acid]
[1]
  EC50: 0.22 µM
[2]
  EC50: > 10 µM

## CCOC(=O)CCC(=O)N1CCC(Nc2cc(=O)[nH]c3ccc(C(c4ccc(Cl)cc4)c4ccc(Cl)cc4)cc23)CC1 [Compound 97, ethyl 4-[4-([6-[bis(4-chlorophenyl)methyl]-2-hydroxyquinolin-4-yl]amino)piperidin-1-yl]-4-oxobutanoate]
[1]
  EC50: 0.031 µM
[2]
  EC50: 9.9 µM
